Source: ChEMBL document CHEMBL5365431 (J Med Chem, 2023)
The source made the active and inactive calls. No cut-off for these calls is given here.

Key:
HCT-15 = assay: Antiproliferative activity against HR-deficient human HCT-15 cells harboring BRCA2 mutant assessed as cell proliferation inhibition incubated for 7 days by SRB assay; type: functional, cell-based
[1] = molecular target: Protein mono-ADP-ribosyltransferase PARP14 (Homo sapiens, UniProt Q460N5); assay: Inhibition of PARP14 (unknown origin) using biotinylated NAD+ as substrate by luminescence assay
WI-38 = assay: Antiproliferative activity against human WI-38 cells assessed as cell proliferation inhibition incubated for 7 days by SRB assay; type: functional, cell-based
[2] = Stabilization of human His-tagged PARP1-DNA complex assessed as increase in fluorescence signal incubated for 60 mins using NAD+ as substrate by DSB fluorescence polarization assay
[3] = Half life in Sprague-Dawley rat at 5 mg/kg, iv and measured upto 24 hrs; type: ADME, organism-based; conditions: in vivo
[4] = molecular target: Protein mono-ADP-ribosyltransferase PARP15 (Homo sapiens, UniProt Q460N3); assay: Inhibition of PARP15 (unknown origin) using biotinylated NAD+ as substrate by luminescence assay
[5] = Antiproliferative activity against human Olaparib-resistant CAPAN-1 cells assessed as cell proliferation inhibition incubated for 7 days by SRB assay; type: functional, cell-based
U-251 = assay: Antiproliferative activity against human Talazoparib-resistant U-251 cells assessed as cell proliferation inhibition incubated for 7 days by SRB assay; type: functional, cell-based
[6] = Toxicity in BALB/c mouse xenografted with human Olaparib-resistant MDA-MB-436 cells assessed as body weight at 12.5 to 25 mg/kg,po QD for 27 days; type: organism-based; conditions: in vivo, 648 h, dose 12.5-25 mg/kg, time 27 day
Mus musculus [7] = organism: Mus musculus; conditions: BALB/c, dose 12.5-25 mg/kg, route po, time 21.0 day
CAPAN-1 [8] = assay: Antitumor activity against human Talazoparib-resistant CAPAN-1 cells xenografted in BALB/c mouse assessed as tumor growth inhibition by measuring T/C ratio at 25 mg/kg,po QD for 21 days relative to control; type: functional; set-up: scale not given: the % may be the effect or the level left; conditions: time 21 day
[9] = molecular target: Protein mono-ADP-ribosyltransferase PARP12 (Homo sapiens, UniProt Q9H0J9); assay: Inhibition of PARP12 (unknown origin) using biotinylated NAD+ as substrate by luminescence assay
[10] = Antiproliferative activity against human Olaparib-resistant U-251 cells assessed as cell proliferation inhibition incubated for 7 days by SRB assay; type: functional, cell-based
[11] = molecular target: Protein mono-ADP-ribosyltransferase PARP4 (Homo sapiens, UniProt Q9UKK3); assay: Inhibition of PARP4 (unknown origin) using biotinylated NAD+ as substrate by luminescence assay
[12] = Antiproliferative activity against human UWB1289 cells harboring wild type BRCA1 assessed as cell proliferation inhibition incubated for 7 days by SRB assay; type: functional, cell-based
[13] = Selectivity index, ratio of IC50 for antiproliferative activity against human UWB1289 cells harboring wild type BRCA1 to IC50 for antiproliferative activity against HR-deficient human UWB1289 cells harboring BRCA1 mutant; type: functional
[14] = Selectivity index, ratio of IC50 for antiproliferative activity against human PARP1 knockout Talazoparib-resistant CAPAN-1 cells to IC50 for antiproliferative activity against human Talazoparib-resistant CAPAN-1 cells; type: functional
[15] = Antiproliferative activity against human Olaparib-resistant MDA-MB-436 cells assessed as cell proliferation inhibition incubated for 7 days by CCK-8 assay; type: functional, cell-based
V79 = assay: Antiproliferative activity against Chinese hamster V79 cells harboring wild type BRCA2 assessed as cell proliferation inhibition incubated for 7 days by SRB assay; type: functional, cell-based; conditions: Cricetulus griseus
[16] = molecular target: Protein mono-ADP-ribosyltransferase PARP10 (Homo sapiens, UniProt Q53GL7); assay: Inhibition of PARP10 (unknown origin) using biotinylated NAD+ as substrate by luminescence assay
CAPAN-1 [17] = assay: Antiproliferative activity against human Talazoparib-resistant CAPAN-1 cells assessed as cell proliferation inhibition incubated for 7 days by SRB assay; type: functional, cell-based
[18] = Selectivity index, ratio of IC50 for antiproliferative activity against Chinese hamster V79 cells harboring wild type BRCA2 to IC50 for antiproliferative activity against Chinese hamster V-C8 cells harboring BRCA2 mutant; type: functional, Cricetulus griseus
MDA-MB-436 = assay: Antiproliferative activity against HR-deficient human MDA-MB-436 cells harboring BRCA1 mutant assessed as cell proliferation inhibition incubated for 7 days by SRB assay; type: functional, cell-based
HCC1937 = assay: Antiproliferative activity against HR-deficient human HCC1937 cells harboring BRCA1 mutant assessed as cell proliferation inhibition incubated for 7 days by SRB assay; type: functional, cell-based
CAPAN-1 [19] = conditions: Homo sapiens, dose 10.0 nM, time 4.5 hrs
Mus musculus [20] = organism: Mus musculus; conditions: BALB/c, dose 12.5-25 mg/kg, route po, time 21.0 day; remark: listed apart in the source
U2OS [21] = assay: Inhibition of homologous recombination repair activity in human PARP1 knockout U2OS cells expressing direct repeat-GFP reporter gene transfected with pCBA-ISceI plasmid at 1 uM incubated for 48 hrs by flow cytometry; type: functional
[22] = molecular target: Protein mono-ADP-ribosyltransferase PARP11 (Homo sapiens, UniProt Q9NR21); assay: Inhibition of PARP11 (unknown origin) using biotinylated NAD+ as substrate by luminescence assay
U2OS [23] = assay: Inhibition of homologous recombination repair activity in human U2OS cells expressing direct repeat-GFP reporter gene transfected with pCBA-ISceI plasmid at 1 uM incubated for 48 hrs by flow cytometry; type: functional
[24] = Antiproliferative activity against Chinese hamster V-C8 cells harboring BRCA2 mutant assessed as cell proliferation inhibition incubated for 7 days by SRB assay; type: functional, cell-based; conditions: Cricetulus griseus
Mus musculus [25] = organism: Mus musculus; conditions: BALB/c, dose 12.5-25 mg/kg, route po, time 21.0 day; remark: listed apart in the source
CAPAN-1 [26] = assay: Antitumor activity against human Talazoparib-resistant CAPAN-1 cells xenografted in BALB/c mouse assessed as tumor growth inhibition by measuring T/C ratio at 12.5 mg/kg,po QD for 21 days relative to control; type: functional; set-up: scale not given: the % may be the effect or the level left; conditions: time 21 day
[27] = molecular target: Poly [ADP-ribose] polymerase 2 (Homo sapiens, UniProt Q9UGN5); assay: Inhibition of PARP2 (unknown origin) using histone as substrate by ELISA
[28] = Clearance in Sprague-Dawley rat at 5 mg/kg, iv and measured upto 24 hrs; type: ADME, organism-based; conditions: in vivo
[29] = molecular target: Protein mono-ADP-ribosyltransferase TIPARP (Homo sapiens, UniProt Q7Z3E1); assay: Inhibition of PARP7 (unknown origin) using biotinylated NAD+ as substrate by luminescence assay
[30] = Antiproliferative activity against human Talazoparib-resistant MDA-MB-436 cells assessed as cell proliferation inhibition incubated for 7 days by CCK-8 assay; type: functional, cell-based, Talazoparib-resistant MDA-MB-436 cell
[31] = molecular target: Poly [ADP-ribose] polymerase tankyrase-2 (Homo sapiens, UniProt Q9H2K2); assay: Inhibition of PARP5B (unknown origin) using biotinylated NAD+ as substrate by luminescence assay
[32] = Antiproliferative activity against HR-deficient human UWB1289 cells harboring BRCA1 mutant assessed as cell proliferation inhibition incubated for 7 days by SRB assay; type: functional, cell-based
[33] = molecular target: Protein mono-ADP-ribosyltransferase PARP6 (Homo sapiens, UniProt Q2NL67); assay: Inhibition of PARP6 (unknown origin) using biotinylated NAD+ as substrate by luminescence assay
CAPAN-1 [34] = assay: Antiproliferative activity against human CAPAN-1 cells assessed as cell proliferation inhibition incubated for 7 days by SRB assay; type: functional, cell-based
[35] = molecular target: Poly [ADP-ribose] polymerase tankyrase-1 (Homo sapiens, UniProt O95271)
[36] = molecular target: Protein mono-ADP-ribosyltransferase PARP3 (Homo sapiens, UniProt Q9Y6F1); assay: Inhibition of PARP3 (unknown origin) using biotinylated NAD+ as substrate by luminescence assay
[37] = Antitumor activity against human Olaparib-resistant MDA-MB-436 cells xenografted in BALB/c mouse assessed as tumor growth inhibition by measuring T/C ratio at 25 mg/kg,po QD for 27 days relative to control; type: functional; set-up: scale not given: the % may be the effect or the level left; conditions: time 27 day
IMR-90 = assay: Antiproliferative activity against human IMR-90 cells assessed as cell proliferation inhibition incubated for 7 days by SRB assay; type: functional, cell-based
CAPAN-1 [38] = conditions: Homo sapiens, dose 10.0 nM, time 4.5 hrs; remark: listed apart in the source
[39] = molecular target: Poly [ADP-ribose] polymerase 1 (Homo sapiens, UniProt P09874); assay: Inhibition of PARP1 (unknown origin) using histone as substrate by ELISA
[40] = Antitumor activity against human Olaparib-resistant MDA-MB-436 cells xenografted in BALB/c mouse assessed as tumor growth inhibition by measuring T/C ratio at 12.5 mg/kg,po QD for 27 days relative to control; type: functional; set-up: scale not given: the % may be the effect or the level left; conditions: time 27 day

Sequence of Protein mono-ADP-ribosyltransferase PARP6 (Q2NL67 whole entry): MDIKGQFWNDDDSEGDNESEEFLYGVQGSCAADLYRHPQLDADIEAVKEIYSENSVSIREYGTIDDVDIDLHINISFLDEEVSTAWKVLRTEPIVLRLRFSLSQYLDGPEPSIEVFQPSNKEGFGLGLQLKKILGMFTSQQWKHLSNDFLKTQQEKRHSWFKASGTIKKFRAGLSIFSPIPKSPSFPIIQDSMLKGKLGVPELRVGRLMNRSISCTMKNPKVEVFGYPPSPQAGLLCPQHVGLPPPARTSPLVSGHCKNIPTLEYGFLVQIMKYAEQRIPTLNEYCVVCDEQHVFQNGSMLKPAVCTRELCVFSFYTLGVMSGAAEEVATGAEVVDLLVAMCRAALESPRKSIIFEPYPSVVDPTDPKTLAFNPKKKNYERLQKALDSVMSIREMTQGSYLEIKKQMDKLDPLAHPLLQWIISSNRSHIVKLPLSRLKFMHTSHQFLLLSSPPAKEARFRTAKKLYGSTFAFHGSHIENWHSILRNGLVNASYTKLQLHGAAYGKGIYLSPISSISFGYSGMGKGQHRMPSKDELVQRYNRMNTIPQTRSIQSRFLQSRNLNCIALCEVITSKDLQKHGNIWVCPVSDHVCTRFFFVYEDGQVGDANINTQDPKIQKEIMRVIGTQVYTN
Sequence of Protein mono-ADP-ribosyltransferase TIPARP (Q7Z3E1 whole entry): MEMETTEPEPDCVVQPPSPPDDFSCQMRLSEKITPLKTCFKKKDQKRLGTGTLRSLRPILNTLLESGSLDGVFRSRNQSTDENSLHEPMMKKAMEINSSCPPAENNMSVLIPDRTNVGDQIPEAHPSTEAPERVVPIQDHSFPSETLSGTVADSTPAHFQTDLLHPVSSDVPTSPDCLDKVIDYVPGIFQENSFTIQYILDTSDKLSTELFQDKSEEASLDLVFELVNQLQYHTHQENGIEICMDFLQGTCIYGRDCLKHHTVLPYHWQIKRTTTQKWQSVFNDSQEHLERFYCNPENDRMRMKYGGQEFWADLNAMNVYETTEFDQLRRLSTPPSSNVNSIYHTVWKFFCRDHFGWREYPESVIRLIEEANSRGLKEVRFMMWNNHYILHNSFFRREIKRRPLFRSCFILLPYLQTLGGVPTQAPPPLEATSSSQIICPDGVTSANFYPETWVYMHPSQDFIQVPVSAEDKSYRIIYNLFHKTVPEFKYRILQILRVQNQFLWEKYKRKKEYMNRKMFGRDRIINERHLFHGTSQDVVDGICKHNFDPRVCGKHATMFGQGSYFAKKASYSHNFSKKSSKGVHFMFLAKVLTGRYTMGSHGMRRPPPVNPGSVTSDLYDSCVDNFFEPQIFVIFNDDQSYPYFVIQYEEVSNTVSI
Sequence of Poly [ADP-ribose] polymerase tankyrase-1 (O95271 whole entry): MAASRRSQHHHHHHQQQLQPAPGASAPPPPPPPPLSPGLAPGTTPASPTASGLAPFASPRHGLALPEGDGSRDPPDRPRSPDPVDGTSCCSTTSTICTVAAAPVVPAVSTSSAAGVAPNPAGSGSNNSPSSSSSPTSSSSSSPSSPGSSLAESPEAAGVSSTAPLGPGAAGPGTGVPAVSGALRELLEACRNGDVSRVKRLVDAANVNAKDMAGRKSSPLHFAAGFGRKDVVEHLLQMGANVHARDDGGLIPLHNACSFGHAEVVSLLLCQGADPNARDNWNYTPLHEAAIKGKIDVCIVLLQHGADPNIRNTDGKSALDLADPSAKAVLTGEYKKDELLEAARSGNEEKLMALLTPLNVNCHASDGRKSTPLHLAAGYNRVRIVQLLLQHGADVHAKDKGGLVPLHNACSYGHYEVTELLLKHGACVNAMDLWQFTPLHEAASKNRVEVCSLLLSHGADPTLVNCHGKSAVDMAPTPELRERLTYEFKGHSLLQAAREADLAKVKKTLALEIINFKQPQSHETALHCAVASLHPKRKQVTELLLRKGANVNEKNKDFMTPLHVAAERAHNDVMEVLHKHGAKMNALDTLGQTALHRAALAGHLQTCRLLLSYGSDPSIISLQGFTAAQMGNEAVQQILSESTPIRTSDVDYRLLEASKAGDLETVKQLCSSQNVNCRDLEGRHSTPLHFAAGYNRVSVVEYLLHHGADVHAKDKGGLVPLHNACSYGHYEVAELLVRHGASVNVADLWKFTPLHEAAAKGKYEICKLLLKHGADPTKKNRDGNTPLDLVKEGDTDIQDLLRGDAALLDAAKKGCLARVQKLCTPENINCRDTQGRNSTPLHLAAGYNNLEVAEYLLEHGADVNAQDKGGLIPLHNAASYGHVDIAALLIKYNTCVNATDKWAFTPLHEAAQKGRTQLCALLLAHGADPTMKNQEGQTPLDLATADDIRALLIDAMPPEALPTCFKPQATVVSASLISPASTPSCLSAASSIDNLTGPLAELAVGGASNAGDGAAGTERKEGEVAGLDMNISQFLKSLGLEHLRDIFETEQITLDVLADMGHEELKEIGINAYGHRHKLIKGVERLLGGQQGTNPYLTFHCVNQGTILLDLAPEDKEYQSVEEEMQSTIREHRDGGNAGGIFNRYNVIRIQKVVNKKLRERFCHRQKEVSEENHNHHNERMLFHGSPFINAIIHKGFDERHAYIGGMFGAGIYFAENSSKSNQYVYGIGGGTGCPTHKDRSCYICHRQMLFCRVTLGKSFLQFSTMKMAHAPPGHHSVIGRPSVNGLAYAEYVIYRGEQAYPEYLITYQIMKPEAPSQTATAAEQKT
Sequence of Protein mono-ADP-ribosyltransferase PARP10 (Q53GL7 whole entry): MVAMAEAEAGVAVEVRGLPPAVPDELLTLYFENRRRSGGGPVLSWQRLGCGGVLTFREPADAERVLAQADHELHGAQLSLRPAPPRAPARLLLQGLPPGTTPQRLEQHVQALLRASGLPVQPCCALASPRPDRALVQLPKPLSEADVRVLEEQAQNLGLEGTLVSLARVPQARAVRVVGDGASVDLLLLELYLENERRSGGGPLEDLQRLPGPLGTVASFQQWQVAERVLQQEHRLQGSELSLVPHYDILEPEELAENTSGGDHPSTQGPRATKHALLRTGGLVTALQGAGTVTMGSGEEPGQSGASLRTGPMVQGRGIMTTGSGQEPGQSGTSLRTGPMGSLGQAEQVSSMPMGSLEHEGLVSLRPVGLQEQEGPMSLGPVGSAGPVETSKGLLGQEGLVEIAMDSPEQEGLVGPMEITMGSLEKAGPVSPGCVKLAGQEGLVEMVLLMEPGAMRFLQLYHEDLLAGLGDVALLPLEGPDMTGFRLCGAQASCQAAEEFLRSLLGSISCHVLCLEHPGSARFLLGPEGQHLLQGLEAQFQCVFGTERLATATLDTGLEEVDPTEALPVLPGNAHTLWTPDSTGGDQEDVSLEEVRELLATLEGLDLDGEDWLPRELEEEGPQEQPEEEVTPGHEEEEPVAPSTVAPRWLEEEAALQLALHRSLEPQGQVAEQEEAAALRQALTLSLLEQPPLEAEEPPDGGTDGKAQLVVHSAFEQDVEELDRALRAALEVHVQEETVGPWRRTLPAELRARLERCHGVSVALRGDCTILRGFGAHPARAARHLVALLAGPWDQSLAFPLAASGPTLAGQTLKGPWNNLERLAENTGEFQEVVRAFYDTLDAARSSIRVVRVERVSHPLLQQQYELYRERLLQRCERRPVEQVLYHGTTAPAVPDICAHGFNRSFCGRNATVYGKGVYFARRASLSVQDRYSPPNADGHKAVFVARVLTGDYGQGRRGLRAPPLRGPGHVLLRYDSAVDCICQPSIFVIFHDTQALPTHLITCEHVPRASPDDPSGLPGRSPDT
Sequence of Protein mono-ADP-ribosyltransferase PARP15 (Q460N3 whole entry): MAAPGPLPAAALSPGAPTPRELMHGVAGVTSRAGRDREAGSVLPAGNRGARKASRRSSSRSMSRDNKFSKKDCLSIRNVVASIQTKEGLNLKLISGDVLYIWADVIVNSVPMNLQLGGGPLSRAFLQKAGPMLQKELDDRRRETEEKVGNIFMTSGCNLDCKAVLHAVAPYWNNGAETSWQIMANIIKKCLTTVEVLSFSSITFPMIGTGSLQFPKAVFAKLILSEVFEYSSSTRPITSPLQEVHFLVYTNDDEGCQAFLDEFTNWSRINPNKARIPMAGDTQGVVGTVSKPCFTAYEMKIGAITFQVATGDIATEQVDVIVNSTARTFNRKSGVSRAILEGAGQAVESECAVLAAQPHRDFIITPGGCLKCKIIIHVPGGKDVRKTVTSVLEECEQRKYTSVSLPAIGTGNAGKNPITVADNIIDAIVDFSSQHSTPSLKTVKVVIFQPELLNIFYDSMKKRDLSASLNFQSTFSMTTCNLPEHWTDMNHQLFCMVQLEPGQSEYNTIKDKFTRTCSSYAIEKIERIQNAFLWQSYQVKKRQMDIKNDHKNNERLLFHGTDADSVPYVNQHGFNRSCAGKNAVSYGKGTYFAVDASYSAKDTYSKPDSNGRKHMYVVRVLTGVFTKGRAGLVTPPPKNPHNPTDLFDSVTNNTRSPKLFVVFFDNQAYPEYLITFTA
Sequence of Poly [ADP-ribose] polymerase 2 (Q9UGN5 whole entry): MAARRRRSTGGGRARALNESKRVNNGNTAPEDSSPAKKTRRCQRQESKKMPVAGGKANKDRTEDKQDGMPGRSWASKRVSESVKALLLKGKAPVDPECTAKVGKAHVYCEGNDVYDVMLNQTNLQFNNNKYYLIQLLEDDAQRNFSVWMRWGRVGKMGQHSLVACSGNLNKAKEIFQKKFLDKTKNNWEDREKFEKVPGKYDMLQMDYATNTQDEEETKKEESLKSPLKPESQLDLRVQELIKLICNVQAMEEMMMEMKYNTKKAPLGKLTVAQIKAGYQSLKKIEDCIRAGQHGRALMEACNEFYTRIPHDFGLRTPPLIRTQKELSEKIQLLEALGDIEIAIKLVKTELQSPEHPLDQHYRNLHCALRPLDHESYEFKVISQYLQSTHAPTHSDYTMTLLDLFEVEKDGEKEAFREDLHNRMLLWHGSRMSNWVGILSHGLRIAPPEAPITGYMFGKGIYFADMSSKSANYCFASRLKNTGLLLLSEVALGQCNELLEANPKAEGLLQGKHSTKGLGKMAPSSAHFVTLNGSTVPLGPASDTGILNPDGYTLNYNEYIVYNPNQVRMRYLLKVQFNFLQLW

IC50 (HCT-15): 44.2 nM
IC50 [1]: 35900 nM
EC50 [2]: 5.55 nM
half-life [3]: 3.25 h
IC50 [4]: 51600 nM
IC50 (U-251): 1.97 nM
IC50 [9]: 14.1 nM
IC50 [11]: 1 nM
IC50 [16]: 10.8 nM
IC50 (MDA-MB-436): 0.52 nM
IC50 (HCC1937): 4.54 nM
IC50 [22]: 2170 nM
IC50 [27]: 0.001 nM
clearance [28]: 24.5 mL/min/kg
IC50 [29]: 7.3 nM
IC50 [31]: 12.4 nM
IC50 [33]: 9.5 nM
IC50 [35]: 3.8 nM
IC50 [36]: 1.1 nM
IC50 [39]: < 0.001 nM
SMILES: O=C(c1cc(Cc2n[nH]c(=O)c3ccccc23)ccc1F)N1CCn2c(nnc2-c2ccc(Br)o2)C1
IC50 (WI-38): 530 nM
IC50 [5]: 0.89 nM
Activity [6]: Non-Toxic
inhibition (Mus musculus [7]): Active
Activity (CAPAN-1 [8]): 13.87%
IC50 [10]: 1.97 nM
IC50 [12]: 0.34 nM
Ratio IC50 [13]: 17
Ratio IC50 [14]: 19
IC50 [15]: 1.97 nM
IC50 (V79): 29.3 nM
IC50 (CAPAN-1 [17]): 1.13 nM
Ratio IC50 [18]: 25
inhibition (CAPAN-1 [19]): Active
inhibition (Mus musculus [20]): Active
inhibition (INH) (U2OS [21]): 50%
inhibition (INH) (U2OS [23]): 95%
IC50 [24]: 1.19 nM
inhibition (Mus musculus [25]): Active
Activity (CAPAN-1 [26]): 48.92%
IC50 [30]: 1.97 nM
IC50 [32]: 0.02 nM
IC50 (CAPAN-1 [34]): 0.1 nM
Activity [37]: 15.29%
IC50 (IMR-90): 1240 nM
inhibition (CAPAN-1 [38]): Active
Activity [40]: 36.74%
